Measured values as given in article PMC9688159 (Cancers, 2022).
Like-named read-outs stand apart in the source and are kept apart here. Blank lines part the entries; values can stand above or below the molecule they belong to. Square brackets hold non-standard residues; d marks the D form. Peptide text beside a SMILES is read from it. pGlu = O=C1CC[C@@H](C(=O)O)N1

Assays:
[1] = tested on: BxPC-3 cells; assay: cell viability (MTS); format: cell-based, human
Source text: (§1) Pancreatic carcinoma cell lines, PANC-1 (ACC 783), BxPC-3 (ACC 760), and Capan-1 (ACC 244), were obtained from DSMZ (Braunschweig, Germany). Normal human fibroblasts (NHF; 106-05A) were purchased from Sigma-Aldrich (Poznan, Poland). PANC-1 and NHF cells were maintained in DMEM containing 10% fetal bovine serum (FBS) and 1% antibiotic solution. BxPC-3 and Capan-1 cells were maintained in […] with 15% FBS and 1% penicillin/streptomycin solution. Cells were regularly tested for mycoplasma contamination.
(§2) In all experiments, cells were seeded in 96-well plates at a density of 4 × 10^3 (PANC-1, BxPC-3), 5 × 10^3 (Capan-1), and 2 × 10^3 (NHF) cells per well. Plates were incubated for 24 h at 37 °C.
(§3) To evaluate the effect of each compound on cell viability, cells were treated with different concentrations (0–60 µM) of tested compounds for 24, 48, and 72 h. Next, 20 µL of MTS solution was added to each well. Plates were incubated for 2 h at 37 °C. The absorbance was measured at 490 nm. Untreated cells served as a negative control. The number of viable cells is directly proportional to the intensity of color produced. Cell viability is expressed as a percentage of control cells.
(§4) Next, the medium was removed and a fresh medium containing tested compounds (at a concentration of 0–60 µM) was added. Plates were incubated for a further 24 h. Next, 20 µL of MTS solution was added to each well, and incubation was started (for 2 h at 37 °C). The absorbance was measured at 490 nm. Untreated cells served as a negative control.

[2] = tested on: Capan-1 cells; assay: cell viability (MTS); format: cell-based, human
Source text: as §1, §2, §3, §4

[3] = tested on: PANC-1 cells; assay: cell viability (MTS); format: cell-based, human
Source text: as §1, §2, §3, §4

[4] = tested on: normal human fibroblasts (NHF); assay: cell viability (MTS); format: cell-based
Source text: as §1, §2, §3, §4

[5] = tested on: PANC-1, BxPC-3, Capan-1 cells and NHF; format: cell-based, human
Source text: as §1, §2, §3

[6] = tested on: PANC-1, BxPC-3 and NHF cells; assay: cell migration (scratch assay), statements for several cell lines together; format: cell-based, human; settings: for effect on cell migration: scratch assay, 0-40 µM, 24 and 48 h
Method: In all experiments, cells were seeded in 24-well plates at a density of 7 × 10^3 (PANC-1, BxPC-3) and 4 × 10^3 (NHF) cells per well and incubated for 48 h. Next, clear lines were made using a sterile 10 μL pipette tip. The medium was carefully removed, and 500 µL of fresh medium was added to the cells. For evaluation of the effect of each compound on cell proliferation, cells were treated with different concentrations (0–40 µM) of tested compounds. Phase-contrast microscopic pictures were taken at 24, 48, and 72 h, and the area of the wound was measured using Image J software (National Institute of Health, V1.5, Bethesda, […], USA). […] Phase-contrast microscopic pictures were taken at 6 and 24 h. The cell migration rate was calculated by measuring the area of the wound at each timepoint. The measurements were performed using ImageJ software. The medium was not changed during the experiment. Due to its inability to form a confluent monolayer, cell migration was not evaluated for Capan-1 cells.

[7] = molecular target: T1, DRD2 (Rattus norvegicus, UniProt P61169); assay: [3H]spiperone competition binding (DRD2 displacement), membrane homogenates; settings: 0.25 nM [3H]spiperone
T1 construct: from tissue; host or cells: Wistar rat brain and spinal cord membranes
Method: (§5) Rats were decapitated, and their brains and spinal cords were quickly removed. […] Briefly, the brains and spinal cords were homogenized in freshly prepared ice-cold Tris-HCl buffer (50 mM, pH 7.4) and centrifuged at 18,000 rpm for 20 min (4 °C). The resulting supernatant was removed while the pellet was taken up in the original volume of Tris-HCl buffer. The homogenate was further incubated at 37 °C for 30 min and again centrifuged. The received pellet was consequently suspended in 50 mM Tris-HCl (pH 7.4) buffer and kept until analysis at −80 °C.
(§6) In DRD1 displacement, the Tris-HCl buffer (pH 7.4) contained 120 mM NaCl, 5 mM KCl, 1 mM MgCl2, 2 mM CaCl2, and 1 µM mianserin. In DRD2 displacement, the Tris-HCl buffer (pH 7.4) was a mixture of 5 mM KCl, 2 mM MgCl2, 2 mM CaCl2, and 1 µM ketanserin. The incubation of tissue membranes was performed in the presence of the unlabeled ligands in increasing concentrations (10^−10–10^−5 M) at 35 °C for 45 min with [^3H]SCH-23390 and at 25 °C for 120 min with [^3H]spiperone. […] The experiment was performed in duplicate and repeated at least three times.
(§7) In the competition binding assays, the IC50 value was calculated using ‘one site competition’ fitting. The inhibitory activity was presented as a percentage of the specific binding observed.

[8] = molecular target: T1, DRD2; assay: ligand-stimulated [35S]GTPγS binding (G-protein activity), membrane homogenates; format: biochemical; settings: for maximal G-protein efficacy (Emax): basal activity = 100%; for EC50: logarithm of EC50, read-out: potency (log EC50) (converted)
[9] = tested on: BxPC-3 cells; assay: cell migration (scratch assay); format: cell-based, human; settings: BxPC-3, after 24 h
Method: In all experiments, cells were seeded in 24-well plates at a density of 7 × 10^3 (PANC-1, BxPC-3) and 4 × 10^3 (NHF) cells per well and incubated for 48 h. Next, clear lines were made using a sterile 10 μL pipette tip. The medium was carefully removed, and 500 µL of fresh medium was added to the cells.
For evaluation of the effect of each compound on cell proliferation, cells were treated with different concentrations (0–40 µM) of tested compounds. Phase-contrast microscopic pictures were taken at 24, 48, and 72 h, and the area of the wound was measured using Image J software (National Institute of Health, V1.5, Bethesda, MA, USA).
The cell migration rate was calculated by measuring the area of the wound at each timepoint. The measurements were performed using ImageJ software. The medium was not changed during the experiment. Due to its inability to form a confluent monolayer, cell migration was not evaluated for Capan-1 cells.

[10] = molecular target: T2, DRD1 (Rattus norvegicus, UniProt P18901); settings: read-out: IC50, DRD1; rat spinal cord homogenates; 2 nM [3H]SCH-23390
Method: as §5, §6, §7

[11] = tested on: GRP-Rs; set-up: method as in PMID 1850273; settings: compared with GRP; cited from earlier work
[12] = molecular target: T2, DRD1; assay: biochemical
Method: as §5, §6, §7

[13] = Homo sapiens, Fibroblast, NHF, 24 h
[14] = Homo sapiens, Fibroblast, NHF, 48 h
[15] = Homo sapiens, Fibroblast, NHF, 72 h
[16] = rat spinal cord membrane homogenates

T1 sequence (P61169 whole entry): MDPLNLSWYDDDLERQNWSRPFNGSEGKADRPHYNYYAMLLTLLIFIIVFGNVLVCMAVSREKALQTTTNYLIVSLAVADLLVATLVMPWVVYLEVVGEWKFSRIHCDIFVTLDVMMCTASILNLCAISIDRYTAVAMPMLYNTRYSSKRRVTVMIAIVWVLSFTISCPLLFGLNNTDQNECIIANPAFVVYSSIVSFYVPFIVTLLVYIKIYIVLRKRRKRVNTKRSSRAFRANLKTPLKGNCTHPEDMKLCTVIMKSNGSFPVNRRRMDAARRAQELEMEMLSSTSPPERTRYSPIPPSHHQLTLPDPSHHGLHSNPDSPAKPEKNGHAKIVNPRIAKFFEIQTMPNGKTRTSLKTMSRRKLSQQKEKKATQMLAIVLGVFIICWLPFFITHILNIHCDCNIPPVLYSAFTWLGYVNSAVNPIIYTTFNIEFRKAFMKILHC
T2 sequence (P18901 whole entry): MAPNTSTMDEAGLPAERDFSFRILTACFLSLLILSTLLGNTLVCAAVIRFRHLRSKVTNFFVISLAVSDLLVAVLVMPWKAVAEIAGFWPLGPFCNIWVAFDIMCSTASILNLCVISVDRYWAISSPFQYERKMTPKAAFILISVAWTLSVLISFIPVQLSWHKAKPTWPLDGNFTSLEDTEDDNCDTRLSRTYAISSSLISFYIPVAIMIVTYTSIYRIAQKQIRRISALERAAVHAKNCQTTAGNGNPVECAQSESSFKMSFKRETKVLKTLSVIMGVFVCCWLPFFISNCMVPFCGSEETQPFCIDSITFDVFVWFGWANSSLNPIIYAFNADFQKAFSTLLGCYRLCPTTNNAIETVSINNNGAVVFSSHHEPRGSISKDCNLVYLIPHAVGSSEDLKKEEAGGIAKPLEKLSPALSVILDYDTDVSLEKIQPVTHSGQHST

SMILES: CSCC[C@H](NC(=O)[C@H](Cc1ccccc1)NC(=O)[C@H](Cc1c[nH]cn1)NC(=O)CNC(=O)[C@@H](NC(=O)[C@H](C)NC(=O)[C@H](Cc1c[nH]c2ccccc12)NC(=O)[C@H](CCC(N)=O)NC(=O)[C@@H]1CCCN1C(=O)[C@@H](NC(=O)[C@@H]1CCC(=O)N1)C(C)C)C(C)C)C(N)=O [Ranatensin] ([pGlu]VPQWAVGHFM-NH2)
IC50 ([7]; rat brain membranes): 0.0127 µM
IC50 ([7]; rat spinal cord homogenates): 0.0488 ± 0.00115 µM
functional character at DRD2 ([8]; conclusion from binding and [35S]GTPγS assays): DRD2 agonist
maximal G-protein efficacy (Emax) ([8]; rat brain membrane homogenates): 124.1%
EC50 ([8]; rat brain membrane homogenates): 0.0184 µM
Emax in presence of selective DRD2 antagonist risperidone ([8]; rat brain, basal = 100%): 101.5%
maximal G-protein efficacy (Emax) [8, 16]: 119.8%
EC50 [8, 16]: 0.78 µM
Emax in presence of selective DRD1 antagonist SCH-39166 ([8]; rat spinal cord membranes, basal = 100%): 117.4%
Emax in presence of selective DRD2 antagonist risperidone ([8]; rat spinal cord, basal = 100%): 100.0%
IC50 ([1]; BxPC-3, 48 h): > 60 µM
IC50 ([1]; BxPC-3, 72 h): > 60 µM
IC50 ([2]; Capan-1, 48 h): > 60 µM
IC50 ([2]; Capan-1, 72 h): > 60 µM
decrease in viability compared to the control ([2]; Capan-1, RAN only, 24 h): around 20%
IC50 ([3]; PANC-1, 48 h): > 60 µM
IC50 ([3]; PANC-1, 72 h): > 60 µM
effect on cell viability ([3]; PANC-1, prolonged incubation (48 and 72 h)): significant increase in PANC-1 cell viability
IC50 ([4]; NHF, 48 h): > 60 µM
IC50 ([4]; NHF, 72 h): > 60 µM
effect on cell viability ([4]; NHF, longer exposure (48 and 72 h)): reduction in fibroblast viability compared to untreated cells
effect on cell viability ([5]; cancer cells, 24 h): lower viability compared to the untreated cells
concentration with total wound closure [9]: ≥ 20 µM
migration rate of DRD2-blocked cells ([6]; PANC-1 and BxPC-3, risperidone pretreated, 24 h): slower in comparison to cells treated with RAN alone
effect on cell migration [6]: migrated at a similar rate to untreated cells
IC50 [10]: > 10 µM
affinity for GRP-Rs [11]: equal affinity for GRP-Rs to GRP itself
IC50 [12]: > 10 µM

SMILES: Cc1nc2n(c(=O)c1CCN1CCC(c3noc4cc(F)ccc34)CC1)CCCC2 [Risperidone]
effect on cell viability [4]: no effect
decrease in cell viability [5]: up to 20%

Continued, in another order:

IC50 ([1]; Homo sapiens, BXPC-3, 24 h): > 60 µM
IC50 ([1]; Homo sapiens, BXPC-3, 48 h): > 60 µM
IC50 ([1]; Homo sapiens, BXPC-3, 72 h): > 60 µM
IC50 ([3]; Homo sapiens, PANC-1, 24 h): > 60 µM
IC50 ([3]; Homo sapiens, PANC-1, 48 h): > 60 µM
IC50 ([3]; Homo sapiens, PANC-1, 72 h): > 60 µM
SMILES: NCCc1ccc(O)c(O)c1 [Dopamine]
IC50 ([2]; Homo sapiens, CAPAN-1, 24 h): > 60 µM
IC50 ([2]; Homo sapiens, CAPAN-1, 48 h): > 60 µM
IC50 ([2]; Homo sapiens, CAPAN-1, 72 h): > 60 µM
IC50 [4, 13]: > 60 µM
IC50 [4, 14]: > 60 µM
IC50 [4, 15]: > 60 µM
effect on cell viability ([5]; all tested cells): increase in cell viability
effect on cell migration [6]: did not significantly increase

IC50 ([1]; Homo sapiens, BXPC-3, 24 h): > 60 µM
IC50 ([1]; Homo sapiens, BXPC-3, 48 h): 0.643 ± 0.05 µM
IC50 ([1]; Homo sapiens, BXPC-3, 72 h): 0.296 ± 0.15 µM
IC50 ([3]; Homo sapiens, PANC-1, 24 h): > 60 µM
IC50 ([3]; Homo sapiens, PANC-1, 72 h): 0.28 ± 0.031 µM
SMILES: Nc1ccn([C@@H]2O[C@H](CO)[C@@H](O)C2(F)F)c(=O)n1 [Gemcitabine, gemcitabine]
IC50 ([2]; Homo sapiens, CAPAN-1, 24 h): > 60 µM
IC50 ([2]; Homo sapiens, CAPAN-1, 72 h): 0.657 ± 0.13 µM
IC50 [4, 13]: > 60 µM
IC50 [4, 15]: 1.28 ± 0.1 µM
effect on cell migration [6]: slower migration with increasing concentration

IC50 ([1]; Homo sapiens, BXPC-3, 24 h): 21.7 ± 2.27 µM
IC50 ([1]; Homo sapiens, BXPC-3, 48 h): 16.1 ± 0.94 µM
IC50 ([1]; Homo sapiens, BXPC-3, 72 h): 17.8 ± 1.38 µM
IC50 ([3]; Homo sapiens, PANC-1, 24 h): 15.1 ± 1.51 µM
IC50 ([3]; Homo sapiens, PANC-1, 48 h): 17 ± 1.08 µM
IC50 ([3]; Homo sapiens, PANC-1, 72 h): 20.3 ± 2.02 µM
SMILES: O=c1[nH]c2ccccc2n1C1CCN(CCCC(c2ccc(F)cc2)c2ccc(F)cc2)CC1 [Pimozide, pimozide]
IC50 ([2]; Homo sapiens, CAPAN-1, 24 h): 25.3 ± 3.11 µM
IC50 ([2]; Homo sapiens, CAPAN-1, 48 h): 20.7 ± 1.3 µM
IC50 ([2]; Homo sapiens, CAPAN-1, 72 h): 20 ± 1.79 µM
IC50 [4, 13]: 38.7 ± 1.37 µM
IC50 [4, 14]: 28.7 ± 3.82 µM
IC50 [4, 15]: 23.6 ± 0.92 µM
effect on cell migration [6]: decreased with the increasing concentration
